In ChEMBL document CHEMBL1158360, “Large ring 1,3-bridged 2-azetidinones: experimental and theoretical studies” (Eur J Med Chem, 2009):
Calls of active or inactive are those of the source. The rule behind the calls is not given here.

Experiments:
[1] = biological target: T1, Penicillin-binding protein 2x (Streptococcus pneumoniae serotype 4 (strain ATCC BAA-334 / TIGR4)) (UniProt P14677); assay: Residual activity of Streptococcus pneumoniae 5204 PBP2x at 100 uM after 16 hrs
T1 sequence (whole entry): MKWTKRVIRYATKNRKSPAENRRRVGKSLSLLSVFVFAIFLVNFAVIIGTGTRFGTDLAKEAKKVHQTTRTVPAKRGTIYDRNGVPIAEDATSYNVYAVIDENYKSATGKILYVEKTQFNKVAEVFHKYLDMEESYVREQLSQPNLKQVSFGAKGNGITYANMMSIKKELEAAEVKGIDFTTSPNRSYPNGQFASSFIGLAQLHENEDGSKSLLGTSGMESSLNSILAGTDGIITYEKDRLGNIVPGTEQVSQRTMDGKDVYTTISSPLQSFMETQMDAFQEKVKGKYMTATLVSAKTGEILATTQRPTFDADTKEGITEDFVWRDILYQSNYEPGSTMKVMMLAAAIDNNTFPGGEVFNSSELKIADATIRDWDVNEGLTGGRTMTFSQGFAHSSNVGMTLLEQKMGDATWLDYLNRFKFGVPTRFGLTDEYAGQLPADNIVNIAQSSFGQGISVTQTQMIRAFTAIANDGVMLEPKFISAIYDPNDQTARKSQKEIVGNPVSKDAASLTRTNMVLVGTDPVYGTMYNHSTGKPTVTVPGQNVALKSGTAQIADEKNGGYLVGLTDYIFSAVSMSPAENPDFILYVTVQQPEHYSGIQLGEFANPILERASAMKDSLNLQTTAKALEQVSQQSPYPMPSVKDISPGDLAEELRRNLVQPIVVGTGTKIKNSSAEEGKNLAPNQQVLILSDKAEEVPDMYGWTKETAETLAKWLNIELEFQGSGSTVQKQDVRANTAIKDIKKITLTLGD

Enterococcus faecium = assay: Residual activity of Enterococcus faecium PBP5fm at 100 uM after 16 hrs
[2] = biological target: T2, MecA (Staphylococcus aureus) (UniProt Q7DHH4); assay: Inhibition of methicillin-resistant Staphylococcus aureus ATCC […] PBP2a assessed as residual activity at 100 uM after 16 hrs; conditions: values are per cent of control
T2 sequence (whole entry): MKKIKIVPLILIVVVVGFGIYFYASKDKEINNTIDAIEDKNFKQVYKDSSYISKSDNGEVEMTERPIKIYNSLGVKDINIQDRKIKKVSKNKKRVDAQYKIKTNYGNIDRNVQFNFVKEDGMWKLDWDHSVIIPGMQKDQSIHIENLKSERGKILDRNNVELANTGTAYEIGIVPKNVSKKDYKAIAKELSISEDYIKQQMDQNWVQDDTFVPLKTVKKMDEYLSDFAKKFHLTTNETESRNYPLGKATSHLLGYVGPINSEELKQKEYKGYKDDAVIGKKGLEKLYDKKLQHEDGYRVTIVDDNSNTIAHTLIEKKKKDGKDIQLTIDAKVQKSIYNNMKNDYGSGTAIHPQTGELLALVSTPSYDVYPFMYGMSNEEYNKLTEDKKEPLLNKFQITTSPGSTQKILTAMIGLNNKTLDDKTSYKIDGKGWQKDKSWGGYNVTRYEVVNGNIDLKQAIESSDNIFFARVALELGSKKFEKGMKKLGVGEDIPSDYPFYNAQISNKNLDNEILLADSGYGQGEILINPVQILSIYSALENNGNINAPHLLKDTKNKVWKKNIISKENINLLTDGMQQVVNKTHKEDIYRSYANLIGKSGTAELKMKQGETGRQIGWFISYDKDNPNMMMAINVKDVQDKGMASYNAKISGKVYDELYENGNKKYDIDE

[3] = Chemical stability assessed as hydrolysis half life; type: physicochemical
[4] = biological target: D-alanyl-D-alanine carboxypeptidase (Actinomadura sp. R39) (UniProt P39045); assay: Residual activity of Actinomadura R39 DD-peptidase at 100 uM after 16 hrs
[5] = Inhibition of beta-lactamase TEM1 at 100 uM
[6] = biological target: Chymotrypsin-like elastase family member 1 (Sus scrofa) (UniProt P00772); assay: Inhibition of pig pancreatic elastase assessed as formation of p-nitroaniline at 100 uM
Chymotrypsin-like elastase family member 1 (Sus scrofa), sequence (P00772 whole entry): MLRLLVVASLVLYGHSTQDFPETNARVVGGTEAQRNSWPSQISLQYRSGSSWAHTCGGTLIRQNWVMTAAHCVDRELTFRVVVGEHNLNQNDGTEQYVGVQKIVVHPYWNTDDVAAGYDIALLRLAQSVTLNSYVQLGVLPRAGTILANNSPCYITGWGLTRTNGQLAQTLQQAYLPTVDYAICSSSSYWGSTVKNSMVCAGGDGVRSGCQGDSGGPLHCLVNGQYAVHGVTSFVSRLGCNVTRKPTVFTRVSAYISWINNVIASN

[7] = biological target: Chymotrypsin-like elastase family member 1 (Sus scrofa) (UniProt P00772); assay: Reversible inhibition of pig pancreatic elastase at 1 to 100 uM preincubated for 60 mins before addition of N-succinyl-L-alanyl-Lalanyl- L-alanyl-p-nitroanilide by incubation/dilution method
[8] = biological target: Chymotrypsin-like elastase family member 1 (Sus scrofa) (UniProt P00772); assay: Reversible inhibition of pig pancreatic elastase at 1 to 100 uM preincubated for 20 mins before addition of N-succinyl-L-alanyl-Lalanyl- L-alanyl-p-nitroanilide by incubation/dilution method
[9] = biological target: Chymotrypsin-like elastase family member 1 (Sus scrofa) (UniProt P00772); assay: Reversible inhibition of pig pancreatic elastase at 1 to 100 uM preincubated for 40 mins before addition of N-succinyl-L-alanyl-Lalanyl- L-alanyl-p-nitroanilide by incubation/dilution method
[10] = biological target: Chymotrypsin-like elastase family member 1 (Sus scrofa) (UniProt P00772); assay: Inhibition of pig pancreatic elastase assessed as formation of p-nitroaniline at 1 uM

CC1(C)S[C@@H]2[C@H](NC(=O)Cc3ccccc3)C(=O)N2[C@H]1C(=O)O
residual activity [1]: < 5%
residual activity (Enterococcus faecium): 10%
residual activity [2]: 13%

CC(=O)O[C@@H]1[C@@H]2C(=O)N1C(=O)CCCCCCC(=O)O[C@@H]2C
half-life [3]: 4 h
residual activity [1]: 99%
residual activity [4]: 113%
residual activity (Enterococcus faecium): 113%
residual activity [2]: 94%
inhibition [5]: inactive
inhibition [6]: inactive

C=CCCC(=O)O[C@H](C)[C@H]1C(=O)N(C(=O)CCC=C)[C@@H]1OC(C)=O
inhibition [7]: Active
half-life [3]: 16 h
residual activity [1]: 93%
inhibition [8]: Active
residual activity [4]: 14%
residual activity (Enterococcus faecium): 84%
inhibition [9]: Active
residual activity [2]: 66%
inhibition [5]: inactive
inhibition [10]: Active

CC(=O)O[C@@H]1[C@@H]2C(=O)N1C(=O)CC/C=C/CCC(=O)O[C@@H]2C
half-life [3]: 6 h
residual activity [1]: 116%
residual activity [4]: 96%
residual activity (Enterococcus faecium): 104%
residual activity [2]: 86%
inhibition [5]: inactive
inhibition [6]: inactive
